Source: patent publication US20240238296A1, “METHODS OF REGULATING BCL11A EXPRESSION AND TREATMENT OF BCL11A-MEDIATED DISORDERS” (Fulcrum Therapeutics, Inc., priority 2021, published 2024)

Key:
[1] = test system: BCL11A; assay: RNA-Seq of BCL11A mRNA expression in erythroid-differentiated primary CD34+ cells; assay type: cell-based, human
Protocol: Human Mobilized Peripheral Blood Primary CD34+ cells from healthy donors were expanded from thaw by seeding 100,000 viable cells/mL in a culture flask containing CD34+ Phase 1 Media comprised of IMDM, 100 ng/ml hSCF, 5 ng/ml IL-3, 3 IU/mL EPO, 250 μg/mL transferrin, 2.5% normal human serum, 1% pen/strep, 10 ng/ml heparin, 10 μg/mL insulin. The cells were supplemented by adding an additional 1X culture volume of CD34+ Phase 1 Media on Day 3 after thaw. At Day 7 post-thaw, cells were seeded at 0.111×10^6 cells/ml in 1.5 mLs of Phase 1 media in 12-well plates and compound was applied. On Day 10 post-thaw, cells were differentiated towards the erythroid lineage by complete medium exchange into CD34+ Phase 2 Media comprised of IMDM, 100 ng/ml hSCF, 3 IU/mL EPO, 250 μg/mL transferrin, 2.5% normal human serum, 1% pen/strep, 10 ng/mL heparin, 10 μg/mL insulin and compound treatment was reapplied. On Day 12 post-thaw the plates were centrifuged, and 1 mL of Phase 2 media exchanged with fresh Phase 2 media and compound. The cells were harvested on Day 14 post-thaw for downstream analyses.
(§1) RNA was extracted from Day 14 post-thaw primary CD34+ cells that were differentiated and treated for 7 days with DMSO, 11 nM, 33 nM, 100 nM, or 300 nM of Compound 1 using Ambion mirVana RNA extraction kits. […] Sequenced raw reads of fastq files from all samples were mapped to hg38 genome assemblies using ArrayStudio aligner. Raw read counts and FPKM were calculated for all genes and DESeq2 was applied to calculate differentially expressed genes using general linear model. […]
Changes in BCL11A expression and HBG1 and HBG2 expression in multiple healthy CD34+ donor cells were measured by RNA sequencing (RNA-Seq). […]
RNA was extracted from Day 14 post-thaw primary CD34+ cells that were differentiated and treated for 7 days with DMSO, 100 nM of Compound 1, or 100 nM of Compound 2 using Ambion mirVana RNA extraction kits. […] Sequenced raw reads of fastq files from all samples were mapped to hg38 genome assemblies using ArrayStudio aligner. […]

[2] = test system: TFRC; assay: RNA-Seq of housekeeping gene TFRC expression in primary CD34+ cells; assay type: cell-based, human; details: Example 2; 100 nM, 7 days
Protocol: (§2) Changes in BCL11A expression and HBG1 and HBG2 expression in multiple healthy CD34+ donor cells were measured by RNA sequencing (RNA-Seq). Human Mobilized Peripheral Blood Primary CD34+ cells from 2 healthy donors and 1 sickle cell trait donor were expanded from thaw by seeding 100,000 viable cells/mL in a culture flask containing CD34+ Phase 1 Media comprised of IMDM, 100 ng/ml hSCF, 5 ng/ml IL-3, 3 IU/mL EPO, 250 μg/mL transferrin, 2.5% normal human serum, 1% pen/strep, 10 ng/ml heparin, 10 μg/mL insulin. The cells were supplemented by adding an additional 1X culture volume of CD34+ Phase 1 Media on Day 3 after thaw. At Day 7 post-thaw, cells were seeded at 0.111×10^6 cells/ml in 1.5 mLs of Phase 1 media in 12-well plates and compound was applied. […]
as §1, with “DMSO,” for “DMSO, 11 nM, 33 nM,”, “100” for “100 nM, or 300”, “Compound 1, or 100 nM of Compound 2” for “Compound 1”

[3] = test system: HbF; assay: Percentage HbF by cation-exchange HPLC in erythroid-differentiated primary CD34+ cells; assay type: cell-based, human; details: Example 2; 100 nM, 7 days
Protocol: as §2
Hemoglobin protein tetramers were analyzed using HPLC analysis following a protocol derived from Gravett et al. Science 2018. […] Hemolysates were cleared by centrifugation and analyzed for identity and levels of hemoglobin variants (HbF and HbA) by cation-exchange HPLC with a weak cation-exchange column (Poly CAT A: 35 mm×4.6 mm, Poly LC, Inc., Columbia, MD). […] Species were monitored with UV absorbance at 410 nm. […] The abundance of HbF, HbS, and HbA was quantified by calculating the area under the curve for each species in the samples. % HbF was calculated as HbF/(HbF+HbS+HbA)*100. […]

[4] = test system: HBG1; assay: RNA-Seq of HBG1 expression in erythroid-differentiated primary CD34+ cells; assay type: cell-based, human
Protocol: as §2, with “applied. On Day 10 post-thaw, cells were differentiated towards the erythroid lineage by complete medium exchange into CD34+ Phase 2 Media comprised of IMDM, 100 ng/ml hSCF, 3 IU/mL EPO, 250 μg/mL transferrin, 2.5% normal human serum, 1% pen/strep, 10 ng/ml heparin, 10 μg/mL insulin and compound treatment was reapplied.” for “applied.”
as §1, with “DMSO,” for “DMSO, 11 nM, 33 nM,”, “100” for “100 nM, or 300”, “Compound 1, or 100 nM of Compound 2” for “Compound 1”
as §1

[5] = test system: HBG2; assay: RNA-Seq of HBG2 expression in erythroid-differentiated primary CD34+ cells; assay type: cell-based, human
Protocol: as §2, with “applied. On Day 10 post-thaw, cells were differentiated towards the erythroid lineage by complete medium exchange into CD34+ Phase 2 Media comprised of IMDM, 100 ng/ml hSCF, 3 IU/mL EPO, 250 μg/mL transferrin, 2.5% normal human serum, 1% pen/strep, 10 ng/ml heparin, 10 μg/mL insulin and compound treatment was reapplied.” for “applied.”
as §1, with “DMSO,” for “DMSO, 11 nM, 33 nM,”, “100” for “100 nM, or 300”, “Compound 1, or 100 nM of Compound 2” for “Compound 1”
as §1

[6] = test system: H3K27me3; assay: Target engagement: H3K27me3 flow cytometry in Ter119+ bone marrow cells of Townes SCD mice; assay type: in vivo, mouse; details: after 28 days of treatment, FIG. 8A
Description: The Townes SCD mouse model was used to study the in vivo pharmacologic activity of Compound 1 in a model with the relevant human globin genes (HBG1 and HBBE6V) integrated into the mouse beta globin locus. […] […] People living with sickle cell present with impaired erythropoiesis leading to elevated reticulocytes, decreased red blood cell count, and total hemoglobin, and additionally display markers of inflammation such as elevated neutrophils and white blood cells. Similarly, the Townes mouse model recapitulates these hematological aspects of SCD.

[7] = test system: HbF; assay: % HbF of total hemoglobin by HPLC from whole blood in Townes SCD mouse model; assay type: in vivo; details: Townes SCD mice; whole blood after 21 days of treatment; FIG. 8C
Description: The Townes SCD mouse model was used to study the in vivo pharmacologic activity of Compound 1 in a model with the relevant human globin genes (HBG1 and HBBE6V) integrated into the mouse beta globin locus. Hydroxyurea was used as a benchmark for this 21-day study. […] People living with sickle cell present with impaired erythropoiesis leading to elevated reticulocytes, decreased red blood cell count, and total hemoglobin, and additionally display markers of inflammation such as elevated neutrophils and white blood cells. Similarly, the Townes mouse model recapitulates these hematological aspects of SCD.

[8] = Example 2, 100 nM, 7 days, all donors studied (D069, D144, D326), FIG. 2
[9] = Example 5, 4-point concentration response curves, FIG. 5A
[10] = Example 5, 4-point concentration response curves, FIG. 5B
[11] = Example 5, 4-point concentration response curves, FIG. 5C

Cn1nccc1-c1cc2c(n3cnnc13)NCc1c(F)ccc3c1[C@H](CO3)CO2 [Compound 2]
BCL11A expression [1, 8]: decreased
BCL11A expression [1, 9]: reduction
expression of the housekeeping gene TFRC [2]: did not result in substantial changes in expression
increase in percentage HbF by HPLC [3]: approximately 2 fold
HBG1 expression [4, 8]: increase
HBG1 expression [4, 10]: induction
HBG2 expression [5, 8]: increase
HBG2 expression [5, 11]: induction

COc1cc(C)[nH]c(=O)c1CN1CCc2c(Cl)cc([C@@H](OC)C3COC3)c(Cl)c2C1=O [Compound 3]
BCL11A expression [1, 9]: reduction
HBG1 expression [4, 10]: induction
HBG2 expression [5, 11]: induction

NC(=O)NO [hydroxyurea]
levels of H3K27me3 in Ter119+ bone marrow cells [6]: not
% HbF of total hemoglobin by HPLC [7]: no change
